Where two headings read alike, the source gives them in different places.
Columns and labels:
Format in all cases: cell-based
[1] = system: HIV-1 mutant Cys188RT in P4 cells; assay: Anti-HIV assay on P4 cells, Cys188RT mutant
Text: (§1) In order to introduce mutation(s) at the level of the pol gene coding for the RT in the pNL4-3 plasmid containing the complete viral genome (Adachi et al., 1986. J. Virol., Vol. 59 p 284-291) we used the “Quick change mutagenesis kit” (Stratagene). The following mutations were separately introduced in pNL4-3: L100I, K103N, V108I, Y181C, Y188C, and the double mutations K103N/V108I. These mutations were chosen because of the resistance that they confer to existing NNRTI. The production procedure of the mutant viral stocks is identical to the one described above.
Anti-HIV activity and cytotoxicity of the compounds were tested on a P4 cell line. The P4 cell line (Clavel & Charneau, 1994. J. Virol., Vol. 68 p 1179-1185) was provided by Dr. François Clavel (Unité de recherche antivirale de l'hôpital Xavier Bichat Paris: Inserm). The P4 cells were cultured in complete DMEM medium supplemented with 10% fetal bovine serum (FBS), 0.5% of Penicillin/Streptomycin and G418 at 0.5 mg/ml. Exponentially growing cells were trypsinized, centrifuged and split twice weekly at 5.10^4 cells/ml.
The P4 cells are HIV-infectible Hela-CD4 cells that carry the bacterial lacZ gene under the control of the HIV-1 long terminal repeat (LTR). In this cell line, transcription of the LacZ gene is driven by the HIV-1 LTR. As such, the cytoplasmic accumulation of β-galactosidase is strictly dependent on the presence of the HIV transactivator Tat produced during the intracellular viral replication (Clavel & Charneau, 1994. J. Virol., Vol. 68, p. 1179-1185). In other words, in this system, the expression level of the β-galactosidase gene is proportional to the viral replication.
Briefly, in the anti-HIV assay 100 Ål of P4 cells were plated in 96-well plate at a concentration of 0.4 10^5 cells/ml and incubated at 37° C., 5% CO2. After 48 h, the medium was removed and 100 Ål of the different drugs dilutions were added to the cells. Four hours after the addition of the drugs all cells were infected with equal amount of cell-free virus, corresponding to 100 ng of HIV p24 antigen. After 48 h of incubation at 37° C., 5% CO2, β-galactosidase activity was measured using chlorophenol red-β-D-galactopyranoside assays.
The absorbance was measured on a Benchmark™ Microplate Reader (Biorad) (λ=570 nm) and compared with 12 cell control replicates (no virus or drug added) and 12 virus control wells (no drug added). Each assay was performed a minimum of three times. The 50% effective concentration (Ec50) was calculated from each dose response curve using the CurveExpert 1.3 software. As Nevirapine activity corresponds to its published values (10-100 nM), the data are consistent with other measures of viral replication.

[2] = system: HIV-1 mutant Asn103/Ile108RT in TZM-bl cells; assay: Anti-HIV assay on TZM-bl cells, Asn103/Ile108RT double mutant; details: read-out: EC50 Asn103/Ile108RT TZM-bl
Text: as §1
(§2) Anti-HIV activity and cytotoxicity of the compounds were tested on the TZM-b1 cell line. The TZM-b1 cell line (Wei et al. 2002. Antimicrob. Agents Chemother. Vol. 46, p 1896-1905) was received from the NIH AIDS Research and Reference Reagent Program. These cells were cultured in complete DMEM medium supplemented with 10% fetal bovine serum (FBS), and 1% Penicillin/Streptomycin. Exponentially growing cells were trypsinized, centrifuged and split twice weekly at 5 10^4 cells/ml.
(§3) The anti-HIV assay with TZM-b1 cells is essentially the same as described above with P4 cells. The main difference between the two cell lines is that the TZM-b1 cells express at their surface both the CD4 and CCR5 proteins, acting as receptor and co-receptor for HIV entry, respectively (Wei et al. 2002. Antimicrob. Agents Chemother. Vol. 46, p 1896-1905). This feature makes the cells very sensitive to infection by the virus. The TMZ-b1 cells were infected with equal amount of cell-free virus, corresponding to 10 ng of HIV p24 antigen. This amount is ten times lower than the amount used to infect the P4 cells.

[3] = system: HIV-1 mutant Asn103RT in MT4 cells; assay: Anti-HIV assay on MT4 cells, Asn103RT mutant
Text: as §1
(§4) Anti-HIV activity of the compounds was tested on MT-4 cell line. The MT-4 cell line (Larder et al. 1989. Sciences, Vol. 243 p 1731) was received from the NIH AIDS Research and Reference Reagent Program. These cells were cultured in RPMI medium supplemented with 10% fetal bovine serum (FBS), and 1% Penicillin/Streptomycin. The cultures were split regularly to keep cells densities between 0.3 to 1.2 10^6 cells/ml.
(§5) The MT-4 cells rapidly die upon infection by HIV. In this system there is an inverse correlation between cells survival and the amount of viral replication.
(§6) Briefly, in the anti-HIV assay exponentially growing MT-4 cells were infected with HIV-1. 100 μl of infected MT-4 cells were seeded in 96-well plate at a concentration of 0.4 10^5 cells/ml, and 100 μl of the different drugs dilutions were added to the cells. After 4 days of incubation at 37° C., 5% CO2, cells survival was measured using MTS (3-(4-5-dimethylthiazol-2-yl)-5-(−(3-carboxymethoxyphenyl)-2-(4-sulfophenyl)-2H-tetrazolium) assays. This compound is reduced by viable cells in a colored soluble formazan salt.
(§7) The absorbance was measured on a Benchmark™ Microplate Reader (Biorad) (λ=490 nm) and compared with 12 cell control replicates (nor virus nor drug added) and 12 virus control wells (no drug added). Each assay was performed a minimum of three times. The 50% effective concentration (EC50) was calculated from each dose response curve using the CurveExpert 1.3 software.

[4] = system: HIV-1 mutant Cys188RT in TZM-bl cells; assay: Anti-HIV assay on TZM-bl cells, Cys188RT mutant; details: read-out: EC50 Cys188RT TZM-bl
Text: as §1, §2, §3

[5] = system: HIV-1 with WT (wild type) RT in MT4 cells; assay: Anti-HIV assay on MT4 cell line, WT RT
Procedure: Wurzburg Jurkat T cells (subclone JR) were transfected with 10 μg of the circularly permuted infectious molecular clone HIVNL4-3 (Adachi et al., 1986. J. Virol, 59 (2), p 284-291). Two days later, co-cultivation with SupT1 cells (a human T-cell lymphoma cell line) was initiated to facilitate rapid production of progeny virions. Production of virus was measured by using the Innotest HIV Antigen mAb p24 kit (Innogenetics). At the peak of production cultures were harvested and filtered. The virus stocks were stored at −80° C. until used.
as §4, §5, §6, §7

[6] = system: HIV-1 mutant Asn103RT in TZM-bl cells; assay: Anti-HIV assay on TZM-bl cells, Asn103RT mutant; details: read-out: EC50 Asn103RT TZM-bl
Text: as §1, §2, §3

[7] = P4, mutant Cys188RT, read-out: EC50 Cys188RT P4
[8] = Human immunodeficiency virus 1, TZM-bl
[9] = Human immunodeficiency virus 1, MT4, read-out: EC50 Asn103RT MT4
[10] = Human immunodeficiency virus 1, read-out: EC50 Cys188RT P4
[11] = TZM-bl, double mutant Asn103/Ile108RT

| Structure (SMILES) | EC50 [1, 7] [nM] | EC50 [3, 9] [nM] | EC50 [4, 8] [nM] | EC50 ([5]; Human immunodeficiency virus 1) [nM] | EC50 [6, 8] [nM] | EC50 [1, 10] [nM] | EC50 ([6]; TZM-bl, mutant Asn103RT) [nM] | other results |
| --- | --- | --- | --- | --- | --- | --- | --- | --- |
| CCOC(=O)c1c(OC2CC(C)CC(C)C2)c(CC)c(C)[nH]c1=O (single isomer, unassigned) [Z37inv] | 10 | – | – | – | – | – | – | – |
| O=C1Nc2ccc(Cl)cc2[C@@](C#CC2CC2)(C(F)(F)F)O1 [Efavirenz, reference compound] | – | 5 | < 1 | < 1 | 35 | < 1 | – | EC50 [2, 8]: 150 nM |
| Cc1ccnc2c1NC(=O)c1cccnc1N2C1CC1 [Nevirapine, reference compound] | – | > 25000 | 2720 | 575 | 2100 | 1640 | – | – |
| CCc1c(C)[nH]c(=O)c(CO)c1OC1CC(C)CC(C)C1 (stereo not shown) [Z45inv] | 8 | – | – | – | – | – | – | – |
| CCc1c(C)[nH]c(=O)c([N+](=O)[O-])c1OC1CC(C)CC(C)C1 (stereo not shown) [Z91inv, 3-nitro-5-ethyl-6-methyl-4-[(3,5-dimethylcyclohexyl)oxy]pyridine-2(1H)-one] | – | 980 | – | < 1 | 355 | < 1 | – | – |
| CCc1c(C)[nH]c(=O)c(CSC(C)=O)c1OC1CC(C)CC(C)C1 (stereo not shown) [Z114] | 3 | – | – | – | – | – | 584 | EC50 Asn103RT MT4 ([3]; MT4, mutant Asn103RT): inactive; EC50 ([4]; TZM-bl, mutant Cys188RT): 1 nM; EC50 [5]: 136 nM |
| CCc1c(C)[nH]c(=O)c(N(C)C)c1OC1CC(C)CC(C)C1 (stereo not shown) [Z150, 3-(dimethylamino)-5-ethyl-6-methyl-4-[(3,5-dimethylcyclohexyl)oxy]pyridine-2(1H)-one] | – | < 1 | < 1 | < 1 | 11 | < 1 | – | EC50 [2, 8]: 158 nM |
| CCc1c(C)[nH]c(=O)c(CN=[N+]=[N-])c1OC1CC(C)CC(C)C1 (stereo not shown) [Z153] | < 1 | – | – | – | – | – | 42 | EC50 [2, 11]: 366 nM; EC50 ([3]; MT4, mutant Asn103RT, read-out: EC50 Asn103RT MT4): 150 nM; EC50 ([4]; TZM-bl, mutant Cys188RT): < 1 nM |
| CCc1c(C)[nH]c(=O)c(C)c1OC1CC(C)CC(C)C1 (stereo not shown) [Z154] | < 1 | – | – | – | – | – | 29 | EC50 [2, 11]: 231 nM; EC50 [5]: < 1 nM |
